Results: patent publication US20240336574A1 (LATIGO BIOTHERAPEUTICS, INC., priority 2021, published 2024)
pIC50: −log10 of the molar value. Where two headings read alike, the source gives them in different places.

Target: T1, recombinant human NaV1.8 stably transfected HEK cells (Homo sapiens, UniProt Q9Y5Y9)
T1 construct: expressed in transfected cells; host or cells: HEK cells, stably transfected
Assay: Compound profiling on NaV1.8, human NaV1.8 cell line, SyncroPatch384PE automated patch clamp assay (Example 102, first set of compounds, Table 16)
Format: cell-based
Conditions: human NaV1.8 HEK cells, Table 16 (first set of compounds)
Procedure: Compound Profiling on NaV1.8—Human NaV1.8 Cell Line—SyncroPatch384PE Assay
Compounds were tested on recombinant human NaV1.8 stably transfected HEK cells using the SyncroPatch384PE system, an automated patch clamp device. Cells were cultured at 37° C./5% CO2 in DMEM medium supplemented with GlutaMAX I, NEAA 1%, FBS 10% and seeded in T175 flasks. Cells were cultured at 30° C. one day prior to recording sodium currents. On the day of the recordings, cells were detached with 0.05% Trypsin-EDTA, resuspended in serum free DMEM medium and placed into the SyncroPatch384PE 6° C. pre-cooled cell hotel and shaken at 200 rpm. Intracellular solution (IC) contained, in mM: 10, CsCl; 110, CsF; 20, EGTA; 10, HEPES. Extracellular solution (EC) contained, in mM: 140, NaCl; 4, KCl; 5, Glucose; 10, HEPES; 2, CaCl2; 1, MgCl2. Washing solution contained, in mM: 40, NMDG; 100, NaCl; 4, KCl; 10, Glucose; 10, HEPES; 5, CaCl2; 1, MgCl2.
Compounds were tested in triplicate in 0.1% DMSO and 0.030% Pluronic Acid. Compounds were diluted 1:3 in EC solution to create a 10-point concentration response curve, spanning a final concentration range from 20-0.001 μM in the assay plate. Each plate contained tetracaine and another tool compound as positive controls. Up to 8 compounds were tested on one plate. 250 μM tetracaine and 0.1% DMSO were used as high and low controls, respectively. Whole cell patch clamp recordings were conducted according to Nanion's standard procedure for SyncroPatch384PE®. Cells were held at a holding potential of −120 mV. A depolarization step to 10 mV for 30 ms was applied (P1 measurement), followed by a hyperpolarization step to −100 mV for 100 ms. An inactivation step at −40 mV for 10 sec was applied before stepping to −100 mV for 20 ms, followed by a step to 10 mV for 30 ms (P2 measurement) and then back to −100 mV for 30 ms. Sweep interval was 15 sec with a sampling rate of 10 kHz. Following establishment of the whole-cell configuration in EC, two washing steps with reference buffer were performed to stabilize the baseline. Compounds were then applied by the SynchroPatch into each well and the current was recorded for five minutes in EC, followed by application of tetracaine to achieve full block at the end of the experiment. The potency of the compounds was assessed on two read-outs, resting state block (P1 measurement) or inactivated state block (P2 measurement) to obtain IC50 values. Values were normalized to high (tetracaine) and low (DMSO) controls. The IC50 values are listed in Table 16 as follows: “A” represents an IC50 less than or equal to 20 nM, “B” represents an IC50 greater than 20 nM to less than or equal to 40 nM, “C” represents an IC50 greater than 40 nM to less than or equal to 200 nM, “D” represents an IC50 greater than 200 nM to less than or equal to 500 nM.

[1] = inactivated state block (P2 measurement), read-out: P2IC50
[2] = resting state block (P1 measurement), read-out: P1IC50

T1 sequence (Q9Y5Y9 whole entry): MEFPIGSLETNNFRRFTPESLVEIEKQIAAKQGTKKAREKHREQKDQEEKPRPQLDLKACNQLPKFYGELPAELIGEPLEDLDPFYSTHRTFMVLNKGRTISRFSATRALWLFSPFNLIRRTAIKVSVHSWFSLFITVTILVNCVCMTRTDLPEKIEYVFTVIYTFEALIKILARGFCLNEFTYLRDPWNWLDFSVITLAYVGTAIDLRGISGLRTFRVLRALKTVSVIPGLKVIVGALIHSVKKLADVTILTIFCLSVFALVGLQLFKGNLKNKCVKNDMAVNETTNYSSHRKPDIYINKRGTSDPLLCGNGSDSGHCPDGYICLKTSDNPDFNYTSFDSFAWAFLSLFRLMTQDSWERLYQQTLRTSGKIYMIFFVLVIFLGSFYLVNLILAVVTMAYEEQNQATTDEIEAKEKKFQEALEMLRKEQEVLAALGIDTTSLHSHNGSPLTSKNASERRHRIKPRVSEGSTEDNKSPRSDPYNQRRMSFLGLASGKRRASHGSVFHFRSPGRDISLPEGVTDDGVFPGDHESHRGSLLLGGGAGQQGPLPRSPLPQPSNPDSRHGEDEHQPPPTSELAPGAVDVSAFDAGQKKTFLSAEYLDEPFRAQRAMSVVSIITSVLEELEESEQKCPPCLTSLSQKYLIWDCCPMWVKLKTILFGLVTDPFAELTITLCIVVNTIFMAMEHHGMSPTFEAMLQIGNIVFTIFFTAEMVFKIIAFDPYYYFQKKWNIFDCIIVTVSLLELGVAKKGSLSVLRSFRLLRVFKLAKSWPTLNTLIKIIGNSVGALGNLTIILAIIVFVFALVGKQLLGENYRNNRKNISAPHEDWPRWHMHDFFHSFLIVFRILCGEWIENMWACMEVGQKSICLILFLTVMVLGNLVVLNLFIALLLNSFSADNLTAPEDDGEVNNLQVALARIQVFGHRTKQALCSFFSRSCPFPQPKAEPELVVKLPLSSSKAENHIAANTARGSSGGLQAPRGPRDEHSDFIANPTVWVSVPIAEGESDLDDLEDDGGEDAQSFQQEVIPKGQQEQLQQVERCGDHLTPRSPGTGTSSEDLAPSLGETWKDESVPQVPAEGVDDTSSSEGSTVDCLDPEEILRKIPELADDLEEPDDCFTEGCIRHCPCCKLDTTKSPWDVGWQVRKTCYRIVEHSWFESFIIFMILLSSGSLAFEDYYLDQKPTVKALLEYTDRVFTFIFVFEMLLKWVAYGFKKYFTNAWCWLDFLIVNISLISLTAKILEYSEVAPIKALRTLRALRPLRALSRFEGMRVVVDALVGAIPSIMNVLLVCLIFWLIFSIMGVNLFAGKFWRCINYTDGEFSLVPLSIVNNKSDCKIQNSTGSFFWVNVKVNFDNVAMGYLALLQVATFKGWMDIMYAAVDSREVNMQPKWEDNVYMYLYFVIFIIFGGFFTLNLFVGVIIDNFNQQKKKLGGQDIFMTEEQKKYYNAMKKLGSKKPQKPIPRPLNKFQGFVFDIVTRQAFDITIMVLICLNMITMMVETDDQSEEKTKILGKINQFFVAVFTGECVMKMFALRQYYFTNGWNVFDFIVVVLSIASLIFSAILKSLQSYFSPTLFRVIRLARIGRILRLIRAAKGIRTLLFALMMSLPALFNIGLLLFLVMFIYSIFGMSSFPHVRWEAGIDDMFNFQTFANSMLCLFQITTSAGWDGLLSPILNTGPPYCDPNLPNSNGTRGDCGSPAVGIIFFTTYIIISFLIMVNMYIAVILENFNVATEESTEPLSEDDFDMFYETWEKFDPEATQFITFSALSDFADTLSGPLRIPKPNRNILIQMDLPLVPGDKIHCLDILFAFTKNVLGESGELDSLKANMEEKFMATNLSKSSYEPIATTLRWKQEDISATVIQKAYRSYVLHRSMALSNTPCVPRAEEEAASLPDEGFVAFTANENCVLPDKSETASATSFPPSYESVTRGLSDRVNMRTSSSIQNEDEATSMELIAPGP

## COc1cc(C#N)ccc1Oc1nnc(-c2cnc(C)nc2)c(C)c1C(=O)Nc1cccc(S(C)(=N)=O)c1 (centres unmarked) [Compound 1457, 3-(4-cyano-2-methoxy-phenoxy)-5-methyl-6-(2-methylpyrimidin-5-yl)-N-[3-(methylsulfonimidoyl)phenyl]pyridazine-4-carboxamide]
[1]
  pIC50: 6.30 to 6.70
[2]
  pIC50: 6.30 to 6.70

## COc1c(Oc2ncc(Br)cc2C(=O)Nc2cccc(C(N)=O)c2)ccc(F)c1F [Compound 1680]
[1]
  pIC50: 7.40 to 7.70
[2]
  pIC50: 7.40 to 7.70

## NC(=O)c1cccc(NC(=O)c2cc(C(F)(F)F)cnc2OC23CC(C(F)(F)F)(C2)C3)c1 [Compound 1634]
[1]
  pIC50: 6.30 to 6.70
[2]
  pIC50: 6.30 to 6.70

## NC(=O)c1cccc(NC(=O)c2cc(C(F)(F)F)cnc2OC2CC(C(F)(F)F)C2)c1 (mixture of isomers) [Compound 1667]
[1]
  pIC50: 6.30 to 6.70
[2]
  pIC50: 6.30 to 6.70

## NC(=O)c1ccc(NC(=O)c2cc(C(F)(F)F)cnc2OC2CC(C(F)(F)F)C2)cc1 (mixture of isomers) [Compound 1670]
[1]
  pIC50: 6.30 to 6.70
[2]
  pIC50: 6.30 to 6.70

## COc1ccc(Oc2ncc(C(F)(F)F)cc2C(=O)Nc2cccc(S(C)(=N)=O)c2)cc1C#N (centres unmarked) [Compound 1591]
[1]
  pIC50: 6.30 to 6.70
[2]
  pIC50: 6.30 to 6.70

## Cc1c(C(F)(F)F)nnc(Oc2ccc(OC(F)F)c(F)c2F)c1C(=O)Nc1cccc(S(C)(=N)=O)c1 (single isomer, unassigned) [Compound 1512, 3-[4-(difluoromethoxy)-2,3-difluorophenoxy]-N-{3-[imino(methyl)oxo-λ^6-sulfanyl]phenyl}-5-methyl-6-(trifluoromethyl)pyridazine-4-carboxamide]
[2]
  pIC50: ≥ 7.70

## COc1c(Oc2nccc(C(F)(F)F)c2C(=O)Nc2cccc(S(C)(=N)=O)c2)ccc(F)c1F (centres unmarked) [Compound 1651]
[1]
  pIC50: ≥ 7.70
[2]
  pIC50: ≥ 7.70

## COc1c(Oc2nnc(C(F)(F)F)c(C)c2C(=O)Nc2cccc(S(C)(=N)=O)c2)ccc(Cl)c1F (single isomer, unassigned) [Compound 1490, 3-(4-chloro-3-fluoro-2-methoxy-phenoxy)-5-methyl-N-[3-(methylsulfonimidoyl)phenyl]-6-(trifluoromethyl)pyridazine-4-carboxamide]
[1]
  pIC50: ≥ 7.70
[2]
  pIC50: ≥ 7.70

## COc1c(Oc2ncc(Br)cc2C(=O)Nc2ccnnc2)ccc(F)c1F [Compound 1683]
[1]
  pIC50: ≥ 7.70
[2]
  pIC50: 7.40 to 7.70

## COC(=O)C12CC(NC(=O)c3cc(C(F)(F)F)cnc3Oc3ccc(C#N)cc3OC)(C1)C2 [Compound 1678]
[1]
  pIC50: 6.30 to 6.70
[2]
  pIC50: 6.30 to 6.70

## COc1c(Oc2ncc(C(F)(F)F)cc2C(=O)Nc2cccc(S(C)(=N)=O)c2)ccc(F)c1F (centres unmarked) [Compound 1630]
[1]
  pIC50: ≥ 7.70
[2]
  pIC50: ≥ 7.70

## Cc1cc(F)ccc1Oc1nnc(C(F)(F)F)c(NC2CC2)c1C(=O)Nc1cccc([S@@](C)(=N)=O)c1 [Compound 1522, (S)-5-(cyclopropylamino)-3-(4-fluoro-2-methylphenoxy)-N-(3-(S-methylsulfonimidoyl)phenyl)-6-(trifluoromethyl)pyridazine-4-carboxamide]
[1]
  pIC50: 6.30 to 6.70
[2]
  pIC50: 6.30 to 6.70

## COc1ccc(Oc2nnc(C(F)(F)F)c(C)c2C(=O)Nc2cccc(S(C)(=O)=O)c2)c(C)c1F [Compound 1427]
[1]
  pIC50: ≥ 7.70
[2]
  pIC50: ≥ 7.70

## Cc1nc(OC2CCC2)ccc1Oc1ncc(C(F)(F)F)cc1C(=O)Nc1ccc(C(N)=O)cc1 [Compound 1566, N-(4-carbamoylphenyl)-2-[[6-(cyclobutoxy)-2-methyl-3-pyridyl]oxy]-5-(trifluoromethyl)pyridine-3-carboxamide]
[1]
  pIC50: 6.30 to 6.70
[2]
  pIC50: 6.30 to 6.70

## COc1ccc(Oc2nnc(C(F)(F)F)c(C)c2C(=O)Nc2cccc(S(C)(=N)=O)c2)c(C)c1F (single isomer, unassigned) [Compound 1505, 3-(3-fluoro-4-methoxy-2-methylphenoxy)-N-{3-[imino(methyl)oxo-λ^6-sulfanyl]phenyl}-5-methyl-6-(trifluoromethyl)pyridazine-4-carboxamide]
[1]
  pIC50: ≥ 7.70
[2]
  pIC50: ≥ 7.70

## COc1cc(C#N)ccc1Oc1nnc(C(F)(F)F)c(C)c1C(=O)Nc1cccnc1 [Compound 1543, 3-(4-cyano-2-methoxy-phenoxy)-5-methyl-N-(3-pyridyl)-6-(trifluoromethyl)pyridazine-4-carboxamide]
[1]
  pIC50: 6.70 to 7.40
[2]
  pIC50: 6.70 to 7.40

## CCOc1ncc(C(F)(F)F)cc1C(=O)Nc1cccc(S(C)(=O)=O)c1 [Compound 1600]
[1]
  pIC50: 6.30 to 6.70
[2]
  pIC50: 6.30 to 6.70

## COc1ncc(-c2nnc(Oc3ccc(C#N)cc3OC)c(C(=O)Nc3cccc(S(C)(=N)=O)c3)c2C)s1 (centres unmarked) [Compound 1461, 3-(4-cyano-2-methoxy-phenoxy)-6-(2-methoxythiazol-5-yl)-5-methyl-N-[3-(methylsulfonimidoyl)phenyl]pyridazine-4-carboxamide; formic acid]
[1]
  pIC50: 6.70 to 7.40
[2]
  pIC50: 6.30 to 6.70

## COCCNS(=O)(=O)c1cccc(NC(=O)c2c(Oc3ccc(C#N)cc3OC)nnc(C(F)(F)F)c2C)c1 [Compound 1439, 3-(4-cyano-2-methoxy-phenoxy)-N-[3-(2-methoxyethylsulfamoyl)phenyl]-5-methyl-6-(trifluoromethyl)pyridazine-4-carboxamide]
[1]
  pIC50: 6.70 to 7.40
[2]
  pIC50: 6.70 to 7.40

## COc1cc(C#N)ccc1Oc1nnc(-c2ccc(C(F)F)cc2)c(C)c1C(=O)Nc1cccc(S(C)(=N)=O)c1 (centres unmarked) [Compound 1453, 3-(4-cyano-2-methoxy-phenoxy)-6-[4-(difluoromethyl)phenyl]-5-methyl-N-[3-(methylsulfonimidoyl)phenyl]pyridazine-4-carboxamide]
[1]
  pIC50: ≥ 7.70
[2]
  pIC50: ≥ 7.70

## CS(=N)(=O)c1cccc(NC(=O)c2cc(C(F)(F)F)cnc2Oc2ccc(C(F)F)nc2)c1 (centres unmarked) [Compound 1674]
[1]
  pIC50: 6.30 to 6.70
[2]
  pIC50: 6.30 to 6.70

## COc1ncc(Oc2ncc(C(F)(F)F)cc2C(=O)Nc2cccc(S(C)(=N)=O)c2)cc1F (centres unmarked) [Compound 1699]
[1]
  pIC50: 6.30 to 6.70
[2]
  pIC50: 6.30 to 6.70

## Cc1cc(F)ccc1Oc1ncc(Cl)c(C)c1C(=O)Nc1cccc(S(C)(=N)=O)c1 (centres unmarked) [Compound 1558, 5-chloro-2-(4-fluoro-2-methylphenoxy)-4-methyl-N-(3-(S-methylsulfonimidoyl)phenyl)nicotinamide]
[1]
  pIC50: ≥ 7.70
[2]
  pIC50: ≥ 7.70

## CCOc1ccc(Oc2ncc(C(F)(F)F)cc2C(=O)Nc2cccc(S(C)(=N)=O)c2)cc1 (centres unmarked) [Compound 1609]
[1]
  pIC50: 6.70 to 7.40
[2]
  pIC50: 6.70 to 7.40

## CS(=N)(=O)c1cccc(NC(=O)c2cc(C(F)(F)F)cnc2Oc2ccc(Br)cc2C2CC2)c1 (centres unmarked) [Compound 1648]
[1]
  pIC50: ≥ 7.70
[2]
  pIC50: ≥ 7.70

## Cc1cc(C#N)ncc1Oc1ncc(C(F)(F)F)cc1C(=O)Nc1cccc(S(C)(=O)=O)c1 [Compound 1694]
[1]
  pIC50: 6.30 to 6.70
[2]
  pIC50: 6.30 to 6.70

## COc1cc(C#N)ccc1Oc1ncc(C2=CCOCC2)cc1C(=O)Nc1cccc(S(C)(=N)=O)c1 (centres unmarked) [Compound 1726, 2-(4-cyano-2-methoxy-phenoxy)-5-(3,6-dihydro-2H-pyran-4-yl)-N-[3-(methylsulfonimidoyl)phenyl]pyridine-3-carboxamide]
[1]
  pIC50: 6.30 to 6.70
[2]
  pIC50: 6.30 to 6.70

## COc1cc(F)c(F)cc1Oc1ncc(C(F)(F)F)cc1C(=O)Nc1cccc(S(C)(=N)=O)c1 (centres unmarked) [Compound 1617]
[1]
  pIC50: 7.40 to 7.70
[2]
  pIC50: 7.40 to 7.70

## Cc1nc(F)ccc1Oc1ncc(C(F)(F)F)cc1C(=O)Nc1cccc(S(C)(=N)=O)c1 (centres unmarked) [Compound 1589]
[1]
  pIC50: 6.70 to 7.40
[2]
  pIC50: 6.70 to 7.40
